PubChem BioAssay AID330 (DTP/NCI, 2004)
Where “and” joins values, the source holds several entries; their conditions need not be identical. Equal values may be shown once. Toxic doses and inconclusive results are not listed.

Tested on: P388 leukemia ip, CD2F1 mice, survival T/C
Test: NCI In Vivo Anticancer Drug Screen. Data for tumor model P388 Leukemia (intraperitoneal) in CD2F1 (CDF1) mice
Conditions: endpoint: median survival time, higher = longer survival
In short: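 Mice carrying the transplanted tumor received test compound or vehicle. Survival was recorded in each group, and the value is the treated-group measurement divided by that of the vehicle-treated control group.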

COc1cc(NS(C)(=O)=O)ccc1Nc1c2ccccc2nc2ccccc12
T/C (dose: 0.25 mg/kg/injection, schedule: Q01DX009 (ip), vehicle: other): 119 % of control | T/C (dose: 0.52 mg/kg/injection, schedule: Q01DX009 (ip), vehicle: other): 151 % of control | T/C (dose: 0.86 mg/kg/injection, schedule: Q01DX009 (ip), vehicle: other): 163 % of control | T/C (dose: 1.0 mg/kg/injection, schedule: Q01DX005 (iv), vehicle: other): 120 % of control | T/C (dose: 1.0 mg/kg/injection, schedule: Q01DX009 (ip), vehicle: other): 157 % of control | T/C (dose: 1.0 mg/kg/injection, schedule: Q04DX003 (ip), vehicle: other): 118 % of control | T/C (dose: 1.44 mg/kg/injection, schedule: Q01DX009 (ip), vehicle: other): 173 % of control | T/C (dose: 1.5 mg/kg/injection, schedule: Q04DX003 (ip), vehicle: clinical formulation): 152 % of control | T/C (dose: 2.0 mg/kg/injection, schedule: Q01DX005 (ip), vehicle: other): 153 % of control and 163 % of control | T/C (dose: 2.0 mg/kg/injection, schedule: Q01DX005 (oral), vehicle: other): 111 % of control | T/C (dose: 2.0 mg/kg/injection, schedule: Q01DX009 (ip), vehicle: other): 175 % of control and 195 % of control | T/C (dose: 2.0 mg/kg/injection, schedule: Q04DX003 (oral), vehicle: other): 111 % of control | T/C (dose: 2.4 mg/kg/injection, schedule: Q01DX009 (ip), vehicle: other): 209 % of control | T/C (dose: 2.5 mg/kg/injection, schedule: Q04DX002 (ip), vehicle: clinical formulation): 153 % of control and 173 % of control | T/C (dose: 2.5 mg/kg/injection, schedule: Q04DX003 (ip), vehicle: other): 155 % of control | T/C (dose: 2.59 mg/kg/injection, schedule: Q04DX003 (ip), vehicle: clinical formulation): 167 % of control | T/C (dose: 2.59 mg/kg/injection, schedule: Q04DX003 (ip), vehicle: saline): 168 % of control | T/C (dose: 2.59 mg/kg/injection, schedule: Q04DX003 (ip), vehicle: water): 161 % of control and 163 % of control and 179 % of control | T/C (dose: 2.6 mg/kg/injection, schedule: Q04DX002 (ip), vehicle: other): 160 % of control | T/C (dose: 3.0 mg/kg/injection, schedule: Q04DX003 (ip), vehicle: clinical formulation): 160 % of control | T/C (dose: 4.0 mg/kg/injection, schedule: Q01DX005 (ip), vehicle: other): 183 % of control and 207 % of control | T/C (dose: 4.0 mg/kg/injection, schedule: Q01DX005 (iv), vehicle: other): 154 % of control | T/C (dose: 4.0 mg/kg/injection, schedule: Q01DX005 (oral), vehicle: other): 120 % of control | T/C (dose: 4.0 mg/kg/injection, schedule: Q01DX009 (ip), vehicle: other): 192 % of control and 223 % of control and 90 % of control | T/C (dose: 4.0 mg/kg/injection, schedule: Q04DX003 (ip), vehicle: other): 163 % of control | T/C (dose: 4.0 mg/kg/injection, schedule: Q04DX003 (oral), vehicle: other): 119 % of control | T/C (dose: 4.3 mg/kg/injection, schedule: Q04DX002 (ip), vehicle: other): 179 % of control | T/C (dose: 4.32 mg/kg/injection, schedule: Q04DX003 (ip), vehicle: clinical formulation): 173 % of control | T/C (dose: 4.32 mg/kg/injection, schedule: Q04DX003 (ip), vehicle: saline): 175 % of control | T/C (dose: 4.32 mg/kg/injection, schedule: Q04DX003 (ip), vehicle: water): 169 % of control and 176 % of control and 180 % of control | T/C (dose: 5.0 mg/kg/injection, schedule: Q04DX002 (ip), vehicle: clinical formulation): 172 % of control and 186 % of control | T/C (dose: 5.0 mg/kg/injection, schedule: Q04DX003 (ip), vehicle: other): 156 % of control and 161 % of control and 193 % of control | T/C (dose: 6.0 mg/kg/injection, schedule: Q04DX003 (ip), vehicle: clinical formulation): 203 % of control | T/C (dose: 6.0 mg/kg/injection, schedule: Q04DX003 (ip), vehicle: saline with Tween-80): 175 % of control | T/C (dose: 6.25 mg/kg/injection, schedule: Q04DX002 (oral), vehicle: other): 101 % of control and 106 % of control | T/C (dose: 7.2 mg/kg/injection, schedule: Q04DX003 (ip), vehicle: clinical formulation): 216 % of control | T/C (dose: 7.2 mg/kg/injection, schedule: Q04DX003 (ip), vehicle: saline): 214 % of control | T/C (dose: 7.2 mg/kg/injection, schedule: Q04DX003 (ip), vehicle: water): 197 % of control and 204 % of control and 219 % of control | T/C (dose: 8.0 mg/kg/injection, schedule: Q01DX005 (ip), vehicle: other): 193 % of control | T/C (dose: 8.0 mg/kg/injection, schedule: Q04DX003 (ip), vehicle: other): 158 % of control and 204 % of control | T/C (dose: 8.0 mg/kg/injection, schedule: Q04DX003 (ip), vehicle: saline with Tween-80): 182 % of control and 235 % of control | T/C (dose: 8.0 mg/kg/injection, schedule: Q04DX003 (oral), vehicle: other): 123 % of control | T/C (dose: 10.0 mg/kg/injection, schedule: Q04DX002 (ip), vehicle: clinical formulation): 216 % of control and 238 % of control | T/C (dose: 10.0 mg/kg/injection, schedule: Q04DX003 (ip), vehicle: other): 182 % of control and 204 % of control and 245 % of control | T/C (dose: 10.8 mg/kg/injection, schedule: Q01DX001 (ip), vehicle: other): 153 % of control | T/C (dose: 12.0 mg/kg/injection, schedule: Q04DX003 (ip), vehicle: clinical formulation): 207 % of control and 228 % of control | T/C (dose: 12.0 mg/kg/injection, schedule: Q04DX003 (ip), vehicle: saline): 261 % of control | T/C (dose: 12.0 mg/kg/injection, schedule: Q04DX003 (ip), vehicle: water): 230 % of control and 231 % of control | T/C (dose: 12.5 mg/kg/injection, schedule: Q04DX002 (oral), vehicle: other): 107 % of control and 117 % of control | T/C (dose: 16.0 mg/kg/injection, schedule: Q04DX003 (ip), vehicle: other): 193 % of control and 245 % of control | T/C (dose: 18.0 mg/kg/injection, schedule: Q01DX001 (ip), vehicle: other): 165 % of control | T/C (dose: 18.0 mg/kg/injection, schedule: Q04DX003 (ip), vehicle: saline with Tween-80): 191 % of control and 264 % of control | T/C (dose: 20.0 mg/kg/injection, schedule: Q01DX001 (ip), vehicle: saline with Tween-80): 117 % of control | T/C (dose: 20.0 mg/kg/injection, schedule: Q04DX002 (ip), vehicle: clinical formulation): 281 % of control | T/C (dose: 22.5 mg/kg/injection, schedule: Q04DX003 (ip), vehicle: saline with Tween-80): 198 % of control | T/C (dose: 25.0 mg/kg/injection, schedule: Q04DX002 (oral), vehicle: other): 120 % of control | T/C (dose: 25.0 mg/kg/injection, schedule: Q04DX003 (ip), vehicle: saline with Tween-80): 161 % of control | T/C (dose: 30.0 mg/kg/injection, schedule: Q01DX001 (ip), vehicle: other): 180 % of control | T/C (dose: 30.0 mg/kg/injection, schedule: Q01DX001 (ip), vehicle: saline with Tween-80): 120 % of control | T/C (dose: 32.0 mg/kg/injection, schedule: Q04DX003 (oral), vehicle: other): 172 % of control | T/C (dose: 40.0 mg/kg/injection, schedule: Q01DX001 (ip), vehicle: saline with Tween-80): 228 % of control | T/C (dose: 40.0 mg/kg/injection, schedule: Q04DX003 (ip), vehicle: other): 86 % of control | T/C (dose: 45.0 mg/kg/injection, schedule: Q04DX003 (ip), vehicle: saline with Tween-80): 187 % of control and 222 % of control and 274 % of control | T/C (dose: 50.0 mg/kg/injection, schedule: Q01DX001 (ip), vehicle: saline with Tween-80): 124 % of control | T/C (dose: 50.0 mg/kg/injection, schedule: Q04DX002 (oral), vehicle: other): 151 % of control and 168 % of control | T/C (dose: 50.0 mg/kg/injection, schedule: Q04DX003 (oral), vehicle: other): 91 % of control | T/C (dose: 60.0 mg/kg/injection, schedule: Q01DX001 (ip), vehicle: saline with Tween-80): 252 % of control

Cc1cncn2ncnc12
T/C (dose: 100.0 mg/kg/injection, schedule: Q04DX003 (ip), vehicle: saline): 100 % of control | T/C (dose: 200.0 mg/kg/injection, schedule: Q04DX003 (ip), vehicle: saline): 95 % of control | T/C (dose: 400.0 mg/kg/injection, schedule: Q04DX003 (ip), vehicle: saline): 95 % of control

O=C1c2cccc3cccc(c23)C(=O)N1CCO
T/C (dose: 50.0 mg/kg/injection, schedule: Q01DX005 (ip), vehicle: saline with Tween-80): 104 % of control | T/C (dose: 100.0 mg/kg/injection, schedule: Q01DX005 (ip), vehicle: saline with Tween-80): 96 % of control | T/C (dose: 200.0 mg/kg/injection, schedule: Q01DX005 (ip), vehicle: saline with Tween-80): 100 % of control

CCOCCC(=O)NCC(=O)NC1C(C)OC(Nc2ncnc3nc[nH]c23)C(O)C1O (stereo not given)
T/C (dose: 3.12 mg/kg/injection, schedule: Q01DX009 (ip), vehicle: water): 94 % of control | T/C (dose: 6.25 mg/kg/injection, schedule: Q01DX009 (ip), vehicle: water): 100 % of control | T/C (dose: 12.5 mg/kg/injection, schedule: Q01DX009 (ip), vehicle: water): 96 % of control | T/C (dose: 25.0 mg/kg/injection, schedule: Q01DX009 (ip), vehicle: water): 116 % of control | T/C (dose: 50.0 mg/kg/injection, schedule: Q01DX009 (ip), vehicle: water): 100 % of control

OC(c1ccccc1)(C(F)(F)F)C(F)(F)F
T/C (dose: 50.0 mg/kg/injection, schedule: Q01DX009 (ip), vehicle: saline with Tween-80): 110 % of control | T/C (dose: 100.0 mg/kg/injection, schedule: Q01DX009 (ip), vehicle: saline with Tween-80): 92 % of control
